In patent publication US9278981B2, “Compounds and compositions for inhibiting the activity of ABL1, ABL2 and BCR-ABL1” (Novartis AG, priority 2012, dated 2016):
Like-named read-outs stand apart in the source and are kept apart here.

Biological target: ABL1 (64-515) (Homo sapiens (Human), UniProt P00519)
Test: Caliper ABL1 (64-515) assay (microfluidic mobility shift)
Format: biochemical
[1] = comparison of ortho substitution on the R3/R4 ring

ABL1 (64-515), sequence (P00519 64-515): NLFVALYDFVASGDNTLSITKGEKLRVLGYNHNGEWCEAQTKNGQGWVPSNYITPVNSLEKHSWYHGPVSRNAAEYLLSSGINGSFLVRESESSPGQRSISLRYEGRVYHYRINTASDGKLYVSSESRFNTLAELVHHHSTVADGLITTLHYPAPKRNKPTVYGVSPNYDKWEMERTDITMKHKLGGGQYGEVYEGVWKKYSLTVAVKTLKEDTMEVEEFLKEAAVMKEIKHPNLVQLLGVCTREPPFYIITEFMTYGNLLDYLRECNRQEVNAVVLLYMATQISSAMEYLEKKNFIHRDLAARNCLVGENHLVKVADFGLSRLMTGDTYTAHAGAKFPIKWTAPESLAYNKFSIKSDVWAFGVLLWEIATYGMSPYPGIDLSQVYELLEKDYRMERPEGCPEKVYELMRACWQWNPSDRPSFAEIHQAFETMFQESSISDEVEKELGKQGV

Compound	IC50	IC50 [1]
O=C(Nc1ccc(OC(F)(F)F)cc1)c1cnc(N2CC3CN(CCO)CC3C2)c(-c2cncnc2)c1 (stereo not shown) [Example 281, 6-(5-(2-Hydroxyethyl)hexahydropyrrolo[3,4-c]pyrrol-2(1H)-yl)-5-(pyrimidin-5-yl)-N-(4-(trifluoromethoxy)phenyl)nicotinamide]	11 nM	–
O=C(Nc1ccc(OC(F)(F)F)cc1Cl)c1cnc(N2CC[C@@H](O)C2)c(-c2cncnc2)c1	–	850 nM
O=C(Nc1ccc(OC(F)(F)Cl)cc1)c1cnc(N2CC[C@@H](O)C2)c(-c2cc(F)cnc2Cl)c1 [Example 288, (R)-2′-Chloro-N-(4-(chlorodifluoromethoxy)phenyl)-5′-fluoro-2-(3-hydroxypyrrolidin-1-yl)-[3,3′-bipyridine]-5-carboxamide]	1 nM	–
N#Cc1ccc(F)cc1-c1cc(C(=O)Nc2ccc(OC(F)(F)Cl)cc2)cnc1N1CC[C@@H](O)C1 [Example 287, (R)—N-(4-(Chlorodifluoromethoxy)phenyl)-5-(2-cyano-5-fluorophenyl)-6-(3-hydroxypyrrolidin-1-yl)nicotinamide]	1.5 nM	–
Cc1ccncc1-c1cc(C(=O)Nc2ccc(OC(F)(F)Cl)cc2)cnc1N1CC[C@@H](O)C1 [Example 291, (R)—N-(4-(Chlorodifluoromethoxy)phenyl)-2-(3-hydroxypyrrolidin-1-yl)-4′-methyl-[3,3′-bipyridine]-5-carboxamide]	0.2 nM	–
O=C(Nc1c(Cl)cc(OC(F)(F)F)cc1Cl)c1cnc(N2CC[C@@H](O)C2)c(-c2cncnc2)c1	–	> 10000 nM
NC12CC1CN(c1ncc(C(=O)Nc3ccc(OC(F)(F)F)cc3)cc1-c1cncnc1)C2 (stereo not shown) [Example 226, 6-(1-Amino-3-azabicyclo[3.1.0]hexan-3-yl)-5-(pyrimidin-5-yl)-N-(4-(trifluoromethoxy)phenyl)nicotinamide]	1.9 nM	–
N#Cc1ncc(F)cc1-c1cc(C(=O)Nc2ccc(OC(F)(F)Cl)cc2)cnc1N1CC[C@@H](O)C1 [Example 292, (R)—N-(4-(Chlorodifluoromethoxy)phenyl)-2′-cyano-5′-fluoro-2-(3-hydroxypyrrolidin-1-yl)-[3,3′-bipyridine]-5-carboxamide]	0.5 nM	–

More lines, now with the values ahead:

IC50	IC50 [1]	Compound
0.7 nM	–	N#Cc1ccc(F)c(-c2cc(C(=O)Nc3ccc(OC(F)(F)Cl)cc3)cnc2N2CC[C@@H](O)C2)c1 [Example 295, (R)—N-(4-(Chlorodifluoromethoxy)phenyl)-5-(5-cyano-2-fluorophenyl)-6-(3-hydroxypyrrolidin-1-yl)nicotinamide]
0.7 nM	–	N#Cc1cc(F)cc(-c2cc(C(=O)Nc3ccc(OC(F)(F)Cl)cc3)cnc2N2CC[C@@H](O)C2)c1 [Example 293, (R)—N-(4-(Chlorodifluoromethoxy)phenyl)-5-(3-cyano-5-fluorophenyl)-6-(3-hydroxypyrrolidin-1-yl)nicotinamide]
0.3 nM	–	COc1ncc(-c2cc(C(=O)Nc3ccc(OC(F)(F)Cl)cc3)cnc2N2CC[C@@H](O)C2)cc1C#N [Example 299, (R)—N-(4-(Chlorodifluoromethoxy)phenyl)-5′-cyano-2-(3-hydroxypyrrolidin-1-yl)-6′-methoxy-[3,3′-bipyridine]-5-carboxamide]
3 nM	–	Cc1ccc(F)cc1-c1cc(C(=O)Nc2ccc(OC(F)(F)Cl)cc2)cnc1N1CC[C@@H](O)C1 [Example 294, (R)—N-(4-(Chlorodifluoromethoxy)phenyl)-5-(5-fluoro-2-methylphenyl)-6-(3-hydroxypyrrolidin-1-yl)nicotinamide]
1 nM	–	Cc1ccc(F)cc1-c1cc(C(=O)Nc2ccc(OC(F)(F)Cl)cc2)cnc1N1C[C@H](O)[C@@H](O)C1 [Example 296, N-(4-(Chlorodifluoromethoxy)phenyl)-6-((3S,4S)-3,4-dihydroxypyrrolidin-1-yl)-5-(5-fluoro-2-methylphenyl)nicotinamide]
